The supplement of paper PMC10307832

Columns and labels:
Experiment in all cases: relative viability (nuclei count vs DMSO), 5 days (fraction); higher = more cells survive
[1] = compound: C1=CC2=C(C=CC(=C2)C=C3C(=O)NC(=NCC4=CC=CS4)S3)N=C1 [RO-3306] + Nc1nc2[nH]cc(CCc3ccc(C(=O)N[C@@H](CCC(=O)O)C(=O)O)cc3)c2c(=O)[nH]1 [Pemetrexed] (partner 0.2 µM)
Procedure, shortened: (§1)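 The day after seeding in 1536-well plates, lung cancer cell lines were treated by pin tool with a single drug, or with a fixed anchor-drug dose together with five library-drug doses (not always all listed) in √10 steps. After 5 days, a combined fix-and-stain solution (final 0.05% Triton X-100, 1% formaldehyde, 1 ug/ml Hoechst) was added. Nuclei counted on 4× images gave relative viability as treated counts over vehicle counts, reported as the median of duplicate plates.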

[2] = compound: C1=CC2=C(C=CC(=C2)C=C3C(=O)NC(=NCC4=CC=CS4)S3)N=C1 [RO-3306] + C[C@@H](Oc1cc(-c2cnn(C3CCNCC3)c2)cnc1N)c1c(Cl)ccc(F)c1Cl [Crizotinib] (partner 1 µM)
Procedure, shortened: as §1

[3] = compound: C1=CC2=C(C=CC(=C2)C=C3C(=O)NC(=NCC4=CC=CS4)S3)N=C1 [RO-3306] + CC1(C)CCC(c2ccc(Cl)cc2)=C(CN2CCN(c3ccc(C(=O)NS(=O)(=O)c4ccc(N[C@H](CCN5CCOCC5)CSc5ccccc5)c(S(=O)(=O)C(F)(F)F)c4)cc3)CC2)C1 [Navitoclax] (partner 0.5 µM)
Procedure, shortened: as §1

[4] = compound: C1=CC2=C(C=CC(=C2)C=C3C(=O)NC(=NCC4=CC=CS4)S3)N=C1 [RO-3306] + Cc1nc(Nc2ncc(C(=O)Nc3c(C)cccc3Cl)s2)cc(N2CCN(CCO)CC2)n1 [Dasatinib] (partner 0.075 µM)
Procedure, shortened: as §1

Cell Line	relative viability ([1]; first compound 0.01 µM)	relative viability ([1]; first compound 0.03162 µM)	relative viability ([1]; first compound 0.1 µM)	relative viability ([1]; first compound 0.3162 µM)	relative viability ([1]; first compound 1 µM)	relative viability ([2]; first compound 0.01 µM)	relative viability ([2]; first compound 0.03162 µM)	relative viability ([2]; first compound 0.1 µM)	relative viability ([2]; first compound 0.3162 µM)	relative viability ([2]; first compound 1 µM)	relative viability ([3]; first compound 0.01 µM)	relative viability ([3]; first compound 0.03162 µM)	relative viability ([3]; first compound 0.1 µM)	relative viability ([3]; first compound 0.3162 µM)	relative viability ([3]; first compound 1 µM)	relative viability ([4]; first compound 0.01 µM)	relative viability ([4]; first compound 0.03162 µM)	relative viability ([4]; first compound 0.1 µM)	relative viability ([4]; first compound 0.3162 µM)	relative viability ([4]; first compound 1 µM)
HCC-78	0.948	0.83	0.91	0.9	0.923	0.357	0.324	0.369	0.372	0.335	0.814	0.767	0.675	0.92	0.682	0.36	0.345	0.444	0.406	0.384
HCC-366	0.215	0.194	0.198	0.137	0.213	0.566	0.611	0.486	0.603	0.522	1.22	0.943	0.991	1.14	1.15	0.794	0.565	0.677	0.668	0.652
HCC-827	0.265	0.26	0.27	0.254	0.277	0.95	0.866	0.943	0.903	0.972	1.04	0.988	0.99	0.994	0.998	0.221	0.314	0.24	0.317	0.299
HOP-62	0.371	0.438	0.318	0.307	0.416	1.2	1.09	0.973	1.05	0.891	1.14	1.01	1.07	0.937	1.33	0.709	0.516	0.633	0.757	0.504
IA-LM	–	–	–	–	–	0.905	–	0.923	1.11	0.546	0.838	0.591	0.717	0.903	1.04	–	–	–	–	–
LC-2-ad	0.291	0.26	0.278	0.278	0.27	0.404	0.416	0.397	0.425	0.368	0.451	0.465	0.437	0.408	0.378	0.57	0.311	0.582	0.533	0.507
LCLC-97TM1	0.175	0.169	0.144	0.178	0.185	–	0.379	0.313	0.338	0.31	–	0.292	0.354	0.399	0.317	0.792	0.714	0.929	0.779	0.859
LCLC-103H	0.474	0.461	0.448	0.457	0.464	1.1	1.01	1.01	1.05	0.951	–	–	–	–	–	0.472	0.478	0.44	0.401	0.385
LK-2	0.266	0.293	0.264	0.275	0.288	0.232	0.239	0.216	0.201	0.234	0.892	0.751	0.828	0.913	0.792	0.333	–	0.489	0.258	0.283
NCI-H358	0.192	0.154	0.177	0.189	0.174	0.612	0.618	0.439	0.446	0.375	–	–	–	–	–	0.145	0.155	0.169	0.133	0.191
NCI-H522	1.16	0.947	0.868	1.16	1.03	–	–	–	–	–	–	–	–	–	–	0.895	0.854	0.82	0.823	0.846
NCI-H650	0.958	0.883	0.868	0.986	0.983	0.56	0.648	0.694	0.691	0.703	–	–	–	–	–	0.429	0.421	0.393	0.479	0.421
NCI-H661	0.966	0.954	0.929	0.926	0.963	1.03	1.22	1.06	0.773	1.07	–	–	–	–	–	0.834	0.769	0.828	0.814	0.799
NCI-H727	–	–	–	–	–	1.33	0.781	0.837	1	0.964	0.45	0.395	0.433	0.471	0.455	0.346	–	0.413	0.402	0.523
NCI-H1299	–	–	–	–	–	1.02	0.943	0.998	0.988	0.991	1.08	1.11	1.04	1	1.03	–	–	–	–	–
NCI-H1395	0.678	0.751	0.728	0.726	0.549	–	–	–	–	–	1.13	1.38	1.11	1.04	0.978	0.4	0.494	0.372	0.409	0.587
NCI-H1563	0.847	0.788	0.818	0.852	0.692	0.866	0.849	0.894	0.873	0.918	–	–	–	–	–	0.413	0.526	0.415	0.48	0.451
NCI-H1623	–	–	–	–	–	–	–	–	–	–	–	–	–	–	–	0.474	0.504	0.525	0.555	0.52
NCI-H1648	0.887	–	0.602	0.697	0.873	–	–	–	–	–	–	–	–	–	–	–	–	–	–	–
NCI-H1703	–	–	–	–	–	0.951	0.418	0.719	0.91	0.568	1.23	0.913	1.08	0.887	1.13	–	–	–	–	–
NCI-H1793	0.971	–	0.771	0.901	0.667	–	–	–	–	–	0.432	0.391	0.46	0.46	0.358	0.341	0.345	0.324	0.451	0.353
NCI-H2342	0.71	0.778	0.816	0.817	0.759	–	–	–	–	–	–	–	–	–	–	0.37	0.306	0.319	0.289	0.303
SW 900	0.487	0.383	0.464	0.488	0.411	–	–	–	–	–	–	–	–	–	–	0.505	0.538	0.658	0.859	0.542
